Test results from the Deep4Chem optical property database.
One block for each molecule: values may come before it.

Experiment: solvent given as SMILES

absorption maximum (in ClCCl): 376 nm
Compound: Cc1ccc(-n2c(-c3ccc(N(c4ccc(-c5ccc(N(c6ccc(-c7nc8c9ccccc9c9ccccc9c8n7-c7ccc(C)cc7)cc6)c6ccc(-c7nc8c9ccccc9c9ccccc9c8n7-c7ccc(C)cc7)cc6)cc5)cc4)c4ccc(-c5nc6c7ccccc7c7ccccc7c6n5-c5ccc(C)cc5)cc4)cc3)nc3c4ccccc4c4ccccc4c32)cc1

Compound: COc1ccc(/N=N/c2c(O)c3ccccc3n(C)c2=O)c(S(=O)(=O)O)c1
absorption maximum (in C1CCOC1): 449 nm
absorption maximum (in CC(C)=O): 451 nm
absorption maximum (in CCOC(C)=O): 446 nm
absorption maximum (in CO): 448 nm
absorption maximum (in CS(C)=O): 447 nm
absorption maximum (in Cc1ccccc1): 449 nm
absorption maximum (in ClCCl): 451 nm
absorption maximum (in O): 447 nm

absorption maximum (in O): 328 nm
Compound: [NH3+]c1cc([NH3+])cc(-c2[nH+]c3ccccc3s2)c1

absorption maximum (in C1CCOC1): 400 nm
Compound: CCCCCCC1(CCCCCC)c2cc(-c3nc(-c4ccc5c(c4)C(CCCCCC)(CCCCCC)c4cc(N6c7ccccc7Sc7ccccc76)ccc4-5)nc(-c4ccc5c(c4)C(CCCCCC)(CCCCCC)c4cc(N6c7ccccc7Sc7ccccc76)ccc4-5)n3)ccc2-c2ccc(N3c4ccccc4Sc4ccccc43)cc21

absorption maximum (in ClCCl): 414 nm
Compound: COc1ccc(N(c2ccc(OC)cc2)c2ccc3c(c2)C2(c4cc(N(c5ccc(OC)cc5)c5ccc(OC)cc5)ccc4C=C3)c3ccccc3-c3ccccc32)cc1

Compound: CCCC1=Cc2nc1ccc1[nH]c(cc1CCC)c1nc(c(N)cc3[nH]c2cc3CCC)C(CCC)=C1
absorption maximum (in Cc1ccccc1): 710 nm

Compound: Cc1nnc(-c2cc(-c3nnc(C)o3)c(-n3c4ccccc4c4ccccc43)cc2-n2c3ccccc3c3ccccc32)o1
absorption maximum (in Cc1ccccc1): 359 nm

absorption maximum (in ClC(Cl)Cl): 338 nm
Compound: CCCCn1c2ccc(-c3ccc(OC)cc3)cc2c2ccc3c4cc(-c5ccc(OC)cc5)ccc4n(CCCC)c3c21

absorption maximum (in C1CCCCC1): 303 nm
absorption maximum (in CC#N): 374 nm
absorption maximum (in CO): 298 nm
absorption maximum (in ClCCl): 374 nm
absorption maximum (in O): 330 nm
Compound: COc1ccccc1-c1nc(-c2ccccc2)c2ccccn12

Compound: CC(C)(C)c1ccc(-c2nc3c4ccccc4c4ccccc4c3n2-c2ccc(C(C)(C)C)cc2)cc1
absorption maximum (in C1CCOC1): 314 nm
absorption maximum (in C1COCCO1): 315 nm
absorption maximum (in CC#N): 310 nm
absorption maximum (in CCCCCC): 315 nm
absorption maximum (in CCCCOCCCC): 315 nm
absorption maximum (in CCN(CC)CC): 316 nm
absorption maximum (in CCOC(C)=O): 313 nm
absorption maximum (in CCOCC): 313 nm
absorption maximum (in CN(C)C=O): 313 nm
absorption maximum (in Cc1ccccc1): 316 nm
absorption maximum (in ClC=C(Cl)Cl): 316 nm
absorption maximum (in ClCCl): 313 nm

absorption maximum (in ClCCl): 672 nm
Compound: COc1c2ccccc2c(OC)c2c(C#CC(C)(C)C)c3cc4ccccc4cc3c(C#CC(C)(C)C)c12

absorption maximum (in O): 350 nm
Compound: COc1cc2cc(-c3ccc(C(=O)OCOC(C)=O)cc3C(=O)OCOC(C)=O)oc2cc1N1CCOCCOCCN(c2cc3oc(-c4ccc(C(=O)OCOC(C)=O)cc4C(=O)OCOC(C)=O)cc3cc2OC)CCOCCOCC1

absorption maximum (in ClC(Cl)Cl): 340 nm
Compound: FC(F)(F)c1ccc(-c2ncc3ccccn23)cc1

absorption maximum (in C1CCOC1): 685 nm
Compound: CCc1nc2c(nc1CC)C(c1ccccc1)=[N+]1C2=Nc2c3nc(CC)c(CC)nc3c(-c3ccccc3)n2[B-]1(F)F

absorption maximum (in C1COCCO1): 389 nm
Compound: CC(=O)Nc1ccc(C2=N/C(=C\c3ccc(C#N)cc3)C(=O)O2)cc1

absorption maximum (in ClCCl): 365 nm
Compound: CC(C)c1cccc(C(C)C)c1N1C(=O)c2cccc3c(Oc4ccc(C(C)(C)c5ccccc5)cc4)ccc(c23)C1=O

absorption maximum (in CO): 574 nm
absorption maximum (in ClC(Cl)Cl): 617 nm
Compound: Cc1nc2c(ccc3c2sc(/C=C/C=C/c2ccc(N(C)C)cc2)[n+]3C)s1

absorption maximum (in ClCCl): 455 nm
Compound: COc1ccc(/C=C/c2nc(-c3ccc([N+](=O)[O-])cc3)[nH]c2/C=C/c2ccc(OC)cc2)cc1

absorption maximum (in ClCCl): 519 nm
absorption maximum (in OCC(F)(F)F): 519 nm
Compound: FC(F)(F)C(F)(F)C(F)(F)C(F)(F)C(F)(F)C(F)(F)CCOc1nnc(Cl)nn1

absorption maximum (in CC#N): 428 nm
absorption maximum (in ClCCl): 434 nm
Compound: COC(=O)c1cc(=O)n(C)c2cc(-c3ccc(N(C)C)cc3)sc12

absorption maximum (in C1CCOC1): 404 nm
Compound: C[Si]1(c2ccccc2)C(c2ccc3c(c2)c2ccccc2n3-c2ccccc2)=C(c2ccccc2)C(c2ccccc2)=C1c1ccc2c(c1)c1ccccc1n2-c1ccccc1

Compound: Cc1ccccc1
absorption maximum (in C1CCCCC1): 256.48 nm

absorption maximum (in ClC(Cl)Cl): 643 nm
Compound: Cc1cc(C)c(C2=C3C=CC=[N+]3[B-]3(c4ccccc4)Oc4cc(O)cc5c6ccc(C)cc6c6cc2n3c6c45)c(C)c1 (configuration not stated)

absorption maximum (in ClCCl): 346 nm
Compound: N#Cc1ccc(-c2cc3c(ccc4sccc43)s2)cc1

Compound: CC(C)(C)c1cc2c(c(C(C)(C)C)c1)O[B-](F)(F)[n+]1c-2nc(-c2ccccc2)c2ccccc21
absorption maximum (in Cc1ccccc1): 410 nm

absorption maximum (in C1CCOC1): 384 nm
Compound: C1=C(c2ccccc2)C=C(c2ccccc2)/C1=C/c1ccc2c(c1)Cc1ccccc1-2

absorption maximum (in CC#N): 597 nm
Compound: CC1=[N+]2C(=C(c3ccccc3)c3c4ccccc4c(C)n3[B-]2(F)F)c2ccccc21

absorption maximum (in C1COCCO1): 422 nm
Compound: O=C1NC(c2ccccc2)=C/C1=C\c1ccccc1

absorption maximum (in ClC(Cl)Cl): 400 nm
Compound: Cc1ccc(-c2oc3cccc4c5c(-c6ccc(C)cc6)c(=N)oc6cccc(c2c34)c65)cc1

absorption maximum (in ClC(Cl)Cl): 412 nm
Compound: C[Si](C)(C)C#CC(C#C[Si](C)(C)C)=Cc1ccc(C=C(C#C[Si](C)(C)C)C#C[Si](C)(C)C)cc1

absorption maximum (in CC#N): 335 nm
Compound: O=C1O/C(=C\c2ccccc2)c2ccccc21

absorption maximum (in O): 274 nm
Compound: [NH3+]C(Cc1ccc(O)cc1)C(=O)[O-] (configuration not stated)

Compound: c1ccc([B-]2(c3ccccc3)Oc3ccc4ccccc4c3-c3c4ccccc4nc[n+]32)cc1
absorption maximum (in Cc1ccccc1): 451 nm

Compound: CCCBr
absorption maximum (in CCCCCC): 208 nm

absorption maximum (in ClCCl): 384 nm
Compound: CN(C)c1ccc(C#Cc2ncnc3ccccc23)cc1

absorption maximum (in CC#N): 387 nm
Compound: C[n+]1ccc2c(ccc3c[n+](C)ccc32)c1

Compound: Cc1cc(C2(c3cc(C)c(O)c(Br)c3)OS(=O)(=O)c3ccccc32)cc(Br)c1O
absorption maximum (in C1CCOC1): 396 nm
absorption maximum (in C1COCCO1): 396 nm
absorption maximum (in CC#N): 398 nm
absorption maximum (in CC(C)(C)O): 411 nm
absorption maximum (in CC(C)=O): 394 nm
absorption maximum (in CC(C)O): 413 nm
absorption maximum (in CCCCCO): 417 nm
absorption maximum (in CCCO): 415 nm
absorption maximum (in CCO): 414 nm
absorption maximum (in CCOC(C)=O): 395 nm
absorption maximum (in CCOCC): 395 nm

Compound: O=P1(c2ccccc2)c2cc(N3c4ccccc4Sc4ccccc43)ccc2-c2ccc(N3c4ccccc4Sc4ccccc43)cc21
absorption maximum (in Cc1ccccc1): 399 nm

absorption maximum (in CC#N): 432 nm
absorption maximum (in O): 440 nm
Compound: COc1ccc2c(c1)[n+]([O-])nc(N)[n+]2[O-]

absorption maximum (in CC#N): 337 nm
absorption maximum (in ClCCl): 350 nm
Compound: O=c1c2cc(F)ccc2nc2n1[B-](F)(F)[n+]1ccccc1-2

absorption maximum (in CC#N): 254 nm
absorption maximum (in CCCCCC): 254 nm
Compound: Cc1ccc(-n2cccc2)cc1

absorption maximum (in C1CCOC1): 366 nm
Compound: N#Cc1cc(-n2c3ccccc3c3cc(Br)ccc32)c(-n2c3ccccc3c3cc(Br)ccc32)cc1C#N

absorption maximum (in CN(C)C=O): 537 nm
Compound: Nc1ccc(N2C(=O)c3ccc4c5ccc6c7c(ccc(c8ccc(c3c48)C2=O)c75)C(=O)N(c2ccc(N)cc2)C6=O)cc1

Compound: Cc1cccc2cc(-c3cc4cccc(C)c4oc3=O)oc12
absorption maximum (in CC#N): 369 nm
absorption maximum (in CCOC(C)=O): 370 nm
absorption maximum (in CS(C)=O): 373 nm
absorption maximum (in Cc1ccccc1): 376 nm
absorption maximum (in O): 367 nm

absorption maximum (in C1CCCCC1): 397.61 nm
Compound: Nc1ccc2cc3ccccc3cc2c1
